The values that follow come from PMC5607265, “Design, synthesis and structure-activity relationship of 3,6-diaryl-7H-[1,2,4]triazolo[3,4-b][1,3,4]thiadiazines as novel tubulin inhibitors” (Scientific Reports, 2017).

“Also recorded” adds a separate entry of the source. Where two headings read alike, the source gives them in different places.

One may read the IC50 as the concentration that gives 50% inhibition. One may read the melting point as the temperature of the solid-liquid transition.

In series [1] the test system is gastric adenocarcinoma SGC-7901 cells. Description: MTT antiproliferative assay, SGC-7901. It is filed as cell-based, human. To be noted: read-out: IC50 SGC-7901. The protocol:
(§1) The SGC-7901, A549 and HT-1080 cell lines were purchased from the American Type Culture Collection (ATCC, Manassas, VA, USA). […] Briefly, approximately 3 × 10^4 cells were seeded in a 96-well plate. After 24 h of incubation at 37 °C, cells were exposed to compounds of differing concentrations for 24 h. After treatment, cells were washed with 1X PBS followed by addition of 100 µL of 0.05% MTT reagent to each well, followed by incubation for 4 h at 37 °C. After incubation, the supernatant from each well was carefully removed and the formazan crystals were dissolved in 100 µL of DMSO. The colour density was measured spectrophotometrically at 490 nm using a microplate reader (SpectraMax Plus384, Molecular Devices Corp., USA). The data were calculated and plotted as percent viability compared to control.
as §1
For orientation: Tetrazolium assays rely on reduction of a dye to a coloured formazan, in cell work by metabolically active cells.

Series [2] relates to lung adenocarcinoma A549 cells. Description: MTT antiproliferative assay, A549. It is filed as cell-based, human. Particulars: read-out: IC50 A549. The protocol: as §1, §1
For series [3], the system named is fibrosarcoma HT-1080 cells. Description: MTT antiproliferative assay, HT-1080. Particulars: read-out: IC50 HT-1080. It is filed as cell-based, human. The protocol: as §1, §1
Series [4] relates to SGC-7901, A549 and HT-1080 cell lines. Description: MTT antiproliferative assay, span over the three cell lines. It is filed as cell-based, human. To be noted: for antiproliferative activity in words: SGC-7901, A549 and HT-1080; for IC50: read-out: IC50 range against the three human cancer cell lines. Here is the method: as §1, §1
Series [5] addresses T1, highly purified tubulin from porcine brain (Sus scrofa, UniProt P02554).
T1 construct: highly purified tubulin from porcine brain; purchased Cytoskeleton BK011P; host or cells: porcine brain (tissue-purified)
Description: Tubulin polymerization assay. It is filed as biochemical. Particulars: CA-4 0.5-4 µM, 6i 0.1-8.0 µM, paclitaxel 5.0 µM, 37 °C. Here is the method:
This assay uses highly purified tubulin from porcine brain.
The reaction was monitored at 37 °C.
(§2) Tubulin polymerization assay[33] was conducted with reagents as described in the kit manufacturer (Cytoskeleton, Cat.#BK011P) in a 96-well plate. In brief, tubulin was re-suspended in ice-cold G-PEM buffer (80 mM PIPES, 2 mM MgCl2, 0.5 mM EGTA, 1 mM GTP, 20% (v/v) glycerol) and added to wells on a 96-well plate containing the designated concentration of drugs or vehicle. Samples were mixed well, and tubulin assembly was monitored (emission wavelength: 450 ± 20 nm; excitation wavelength: 360 ± 20 nm) at 1 min intervals for 90 min at 37 °C in a SpectraMax 340PC spectrophotometer (Biotek Synergy HT, Winooskin, VT, USA). IC50 values were calculated from data at the 20 min time point using GraphPad Prism software. Experiments were repeated three times.
as §2, with “assay” for “assay[33]”, “450±20” for “450 ± 20”, “360±20” for “360 ± 20”, “timepoint” for “time point”

In the next series the test system is HCT116. More on the design: method as in Org. Biomol. Chem. 2005, 3, 2657-2660. To be noted: ref Org. Biomol. Chem. 2005, 3, 2657-2660; cited from earlier work.
Where [6] appears, read: Homo sapiens, SGC-7901, MTT assay, 24 h exposure, triplicate.
Where [7] appears, read: Homo sapiens, A549, MTT assay, 24 h exposure, triplicate.
The mark [8] stands for this setting: Homo sapiens, HT-1080, MTT assay, 24 h exposure, triplicate.
[9] abbreviates: MTT assay, 24 h exposure, triplicate.
Where [10] appears, read: range over SGC-7901, A549 and HT-1080, MTT assay.

T1 sequence (P02554 whole entry): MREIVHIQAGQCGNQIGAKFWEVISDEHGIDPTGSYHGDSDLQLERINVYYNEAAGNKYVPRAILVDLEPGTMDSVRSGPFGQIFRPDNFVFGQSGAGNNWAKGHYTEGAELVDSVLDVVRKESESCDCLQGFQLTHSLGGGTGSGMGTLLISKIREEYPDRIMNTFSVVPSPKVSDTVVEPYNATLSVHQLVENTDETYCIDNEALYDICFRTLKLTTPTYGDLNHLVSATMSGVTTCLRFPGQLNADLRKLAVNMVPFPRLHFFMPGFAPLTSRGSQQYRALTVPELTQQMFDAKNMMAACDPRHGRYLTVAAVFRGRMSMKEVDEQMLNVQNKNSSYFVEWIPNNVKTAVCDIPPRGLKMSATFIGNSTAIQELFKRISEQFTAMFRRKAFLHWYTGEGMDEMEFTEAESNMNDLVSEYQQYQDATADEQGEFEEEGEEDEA
T1 sequence (P02550 whole entry partner): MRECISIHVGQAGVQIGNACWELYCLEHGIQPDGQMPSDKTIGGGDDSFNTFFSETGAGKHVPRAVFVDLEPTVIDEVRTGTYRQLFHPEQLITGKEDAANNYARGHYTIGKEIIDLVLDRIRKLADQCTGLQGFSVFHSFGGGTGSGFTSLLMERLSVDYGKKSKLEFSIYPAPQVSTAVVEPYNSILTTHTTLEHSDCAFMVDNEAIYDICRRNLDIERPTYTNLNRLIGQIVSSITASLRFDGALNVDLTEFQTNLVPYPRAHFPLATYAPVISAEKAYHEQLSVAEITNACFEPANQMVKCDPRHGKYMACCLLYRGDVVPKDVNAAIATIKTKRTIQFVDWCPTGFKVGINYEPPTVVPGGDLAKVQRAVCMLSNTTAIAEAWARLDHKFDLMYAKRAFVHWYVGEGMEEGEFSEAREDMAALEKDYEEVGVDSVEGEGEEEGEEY

In turn, `COc1ccc(C2=Nn3c(nnc3-c3ccc4c(c3)OCO4)SC2)cc1O` [Compound 6e, 3-(3,4-Methylenedioxyphenyl)-6-(3-hydroxy-4-methoxyphenyl)-7H-[1,2,4]triazolo[3,4-b][1,3,4]thiadiazine] returned a melting point of 85 to 87 °C. The IC50 in series [1] (setting [6]) is 37 nM. Further, in series [2] (setting [7]), the IC50 is 79 nM. Moreover, the 50% inhibitory concentration (IC50) in series [3] (setting [8]) came to 35 nM. Besides, in series [4] (MTT assay), the “antiproliferative activity in words” value was “nanomolar IC50 values against all tested cells; also recorded: IC50 values at the nanomolar level”.

In the case of `CC(=O)O[C@H]1C(=O)[C@@]2(C)[C@H]([C@H](OC(=O)c3ccccc3)[C@]3(O)C[C@H](OC(=O)[C@H](O)[C@@H](NC(=O)c4ccccc4)c4ccccc4)C(C)=C1C3(C)C)[C@]1(OC(C)=O)CO[C@@H]1C[C@@H]2O` [paclitaxel, reference compound], the “effect on tubulin polymerization in words” value in series [5] is on record as “could distinctly promoted this process”.

For `COc1ccc(/C=C/C=C\c2cc(OC)c(OC)c(OC)c2)cc1O` [vinylogous CA-4 (Z,E), vinylogous CA-4], the IC50 with HCT116 is 163 nM.

`COc1ccc(C2=Nn3c(nnc3-c3ccc(OC)c(OC)c3OC)SC2)cc1N` [Compound 4j, 3-(2,3,4-Trimethoxyphenyl)-6-(3-amino-4-methoxyphenyl)-7H-[1,2,4]triazolo[3,4-b][1,3,4]thiadiazine]: the melting point lay within 93 to 94 °C. Moreover, the half-inhibitory concentration (IC50) in series [1] (Homo sapiens, SGC-7901, 24 h) stood at 1570 nM. Moreover, the 50% inhibitory concentration (IC50) in series [2] (Homo sapiens, A549, 24 h) amounted to 1580 nM. Further, the IC50 in series [3] (Homo sapiens, HT-1080, 24 h) came out at 890 nM. Besides, the “antiproliferative activity in words” value in series [4] (MTT assay) is recorded as “only moderate activity”.

As for `COc1ccc(-c2nnc3n2N=C(c2ccc(OC)c(N)c2)CS3)cc1` [Compound 6k, 3-(4-Methoxyphenyl)-6-(3-amino-4-methoxyphenyl)-7H-[1,2,4]triazolo[3,4-b][1,3,4]thiadiazine], the melting point was in the range of 214 to 215 °C. In addition, in series [1] (setting [6]), the IC50 was determined as 36 nM. Moreover, the IC50 in series [2] (setting [7]) came to 38 nM. In addition, the IC50 in series [3] (setting [8]) came to 23 nM. The “antiproliferative activity in words” value in series [4] (MTT assay) was “nanomolar IC50 values against all tested cells; also recorded: IC50 values at the nanomolar level”.

For the molecule `COc1ccc(C2=Nn3c(nnc3-c3ccc(OC)c(OC)c3OC)SC2)cc1O` [Compound 4l, 3-(2,3,4-Trimethoxyphenyl)-6-(3-hydroxy-4-methoxyphenyl)-7H-[1,2,4]triazolo[3,4-b][1,3,4]thiadiazine], the melting point lay in the range of 88 to 89 °C. In addition, the concentration for half-maximal inhibition (IC50) in series [1] (setting [6]) came out at 16300 nM. Further, the IC50 in series [2] (setting [7]) is 7730 nM. In addition, in series [3] (setting [8]), the IC50 stood at 630 nM. Further, the “antiproliferative activity in words” value in series [4] (MTT assay) is “only moderate activity”.

As to `COc1cc(-c2nnc3n2N=C(c2ccc(C)cc2)CS3)cc(OC)c1OC` [Compound 5b, 3-(3,4,5-Trimethoxyphenyl)-6-(4-methyphenyl)-7H-[1,2,4]triazolo[3,4-b][1,3,4]thiadiazine], the IC50 is 27 nM in series [1] (setting [9]), 19 nM in series [2] (setting [9]), 16 nM in series [3] (setting [9]) and 16 to 27 nM in series [4] (setting [10]). The “antiproliferative activity in words” value in series [4] (MTT assay) is “IC50 values at the nanomolar level”.

Regarding `COc1ccc(-c2nnc3n2N=C(c2ccc(C)cc2)CS3)c(OC)c1OC` [Compound 4d, 3-(2,3,4-Trimethoxyphenyl)-6-(4-methyphenyl)-7H-[1,2,4]triazolo[3,4-b][1,3,4]thiadiazine], the IC50 was 66 nM in series [1] (setting [9]), 73 nM in series [2] (setting [9]), 28 nM in series [3] (setting [9]) and 28 to 73 nM in series [4] (setting [10]). In addition, in series [4] (MTT assay), the “antiproliferative activity in words” value is recorded as “IC50 values at the nanomolar level”.

As for `COc1ccc(C2=Nn3c(nnc3-c3cc(OC)c(OC)c(OC)c3)SC2)cc1O` [Compound 5i, 3-(3,4,5-Trimethoxyphenyl)-6-(3-hydroxy-4-methoxyphenyl)-7H-[1,2,4]triazolo[3,4-b][1,3,4]thiadiazine], the melting point is 95 to 97 °C. Besides, the IC50 in series [1] (Homo sapiens, SGC-7901, 24 h) is 26 nM. Further, the half-inhibitory concentration (IC50) in series [2] (Homo sapiens, A549, 24 h) turned out to be 71 nM. Also, the IC50 in series [3] (Homo sapiens, HT-1080, 24 h) is 47 nM. Also, in series [4] (Homo sapiens), the concentration for half-maximal inhibition (IC50) fell in the range of 26 to 71 nM. In addition, the “antiproliferative activity in words” value in series [4] (MTT assay) is on record as “IC50 values at the nanomolar level”.

The molecule `COc1ccc(C2=Nn3c(nnc3-c3ccc4c(c3)OCO4)SC2)cc1N` [Compound 6c, 3-(3,4-Methylenedioxyphenyl)-6-(3-amino-4-methoxyphenyl)-7H-[1,2,4]triazolo[3,4-b][1,3,4]thiadiazine] returned a melting point of 88 to 90 °C. In series [1] (setting [6]), the IC50 was 18 nM. Also, in series [2] (setting [7]), the IC50 was 26 nM. For the same molecule, the IC50 in series [3] (setting [8]) amounted to 21 nM. The “antiproliferative activity in words” value in series [4] (MTT assay) is given as “nanomolar IC50 values against all tested cells; also recorded: IC50 values at the nanomolar level”.

As for `COc1ccc(C2=Nn3c(nnc3-c3ccc(OC)c(OC)c3)SC2)cc1N` [Compound 6g, 3-(3,4-Dimethoxyphenyl)-6-(3-amino-4-methoxyphenyl)-7H-[1,2,4]triazolo[3,4-b][1,3,4]thiadiazine], the melting point was 213 to 215 °C. Also, in series [1] (setting [6]), the IC50 stood at 23 nM. Moreover, in series [2] (setting [7]), the IC50 was found to be 32 nM. In series [3] (setting [8]), the IC50 amounted to 18 nM. In addition, the “antiproliferative activity in words” value in series [4] (MTT assay) is “IC50 values at the nanomolar level”. For the same molecule, the “antiproliferative activity in words” value in series [4] (MTT assay, listed as 6 g) is listed as “nanomolar IC50 values against all tested cells”.

The molecule `COc1cc(-c2nnc3n2N=C(c2ccc(C(F)(F)F)cc2)CS3)cc(OC)c1OC` [Compound 5c, 3-(3,4,5-Trimethoxyphenyl)-6-(4-(trifluoromethyl)phenyl)-7H-[1,2,4]triazolo[3,4-b][1,3,4]thiadiazine] gave a melting point of 105 to 106 °C. The IC50 in series [1] (setting [6]) is 1170 nM. For the same molecule, in series [2] (setting [7]), the half-maximal inhibitory concentration (IC50) is 7720 nM. For the same molecule, the IC50 in series [3] (setting [8]) came out at 750 nM.
